# Measured values: patent publication US20090047221A1 (NIPRI LIMITED, priority 2004, published 2009)
# Tested on: cancer cell line MDA-MB-468
# Assay: Combination index with known cancer drugs against proliferation (Calcusyn software)
# Assay type: cell-based
# Conditions: MDA-MB-468
# Description: A combination index of less than 0.1 indicates very strong synergy; a combination index of 0.1 to 0.3 indicates strong synergism; a combination index of 0.3 to 0.7 indicates synergism; a combination index of 0.7 to 0.85 indicates moderate synergism; a combination index of 0.85 to 0.9 indicates slight synergism and a combination index of 0.9 to 1.1 indicates only very slight synergism, said combination being close to merely additive.
# The combination index may be calculated using calcusyn software.
# Evidence of synergy was determined by calculation of the combination index using Calcusyn software.
# The MTT assay was used initially to determine the anti-proliferative activity of the test compounds. In the MTT assay a yellow thiazolyl blue tetrazolium bromide salt (MTT) is reduced, in metabolically active cells, to form insoluble purple formazan crystals which are solubilised by the addition of dimethyl sulphoxide (DMSO). Absorbance readings can then be determined spectrophotometrically and a relationship established between control untreated cells and drug treated cells enabling the quantification of anti-proliferative changes as a result of drug treatment (Mosmann, 1983).
# Wells containing medium only were used as blanks. Following the attachment period, cells were treated with appropriate drug concentrations (20 μl added per well). 40 mg/ml stock drug solutions, in DMSO, were stored at −20° C. and on the day of drug treatment working solutions of 4 mg/ml were prepared in medium which was further diluted to achieve final drug dilution volumes of 20 μl. Initial screening was determined over a concentration range of 1-200 μg/ml. For potent compounds the assay was repeated over a narrower concentration range to determine accurate IC50 values. Cells were exposed to drug for 96 h continual exposure (37° C., 5% CO2). Following the 96 h incubation, 50 μl MTT solution (1 g MTT/500 ml PBS) was added per well and the plates were further incubated for 4 h (37° C., 5% CO2). After incubation the MTT and medium was removed from the wells and 100 μl DMSO added per well. Plates were agitated on an orbital mixer platform (Stuart Scientific) for 10 minutes. Absorbance was measured at 570 nm on a Biotrak II (Amersham Bioscience) plate reader. IC50 values were calculated comparing control and drug treated cells.
smiles,measurement,setting,value
"CC1(C)Cc2ccc(C(=O)N[C@@H](Cc3ccccc3)C(=O)O)c(O)c2C(=O)O1 [ALM-74, L-Phenyl Alanine Amide of Compound ALM-73]",Combination Index,"Cisplatin 1 × 10^−2 mol/L, ALM-74 0.1 μg/ml",0.006
same,Combination Index,"Cisplatin 1 × 10^−2 mol/L, ALM-74 0.5 μg/ml",0.008
same,Combination Index,"Cisplatin 1 × 10^−2 mol/L, ALM-74 1.0 μg/ml",0.082
same,Combination Index,"Cisplatin 1 × 10^−2 mol/L, ALM-74 5.0 μg/ml",0.130
same,Combination Index,"Cisplatin 1 × 10^−3 mol/L, ALM-74 0.1 μg/ml",No
same,Combination Index,"Cisplatin 1 × 10^−3 mol/L, ALM-74 0.5 μg/ml",No
same,Combination Index,"Cisplatin 1 × 10^−3 mol/L, ALM-74 1.0 μg/ml",0.039
same,Combination Index,"Cisplatin 1 × 10^−3 mol/L, ALM-74 5.0 μg/ml",0.346
same,Combination Index,"Cisplatin 1 × 10^−4 mol/L, ALM-74 0.1 μg/ml",No
same,Combination Index,"Cisplatin 1 × 10^−4 mol/L, ALM-74 0.5 μg/ml",No
same,Combination Index,"Cisplatin 1 × 10^−4 mol/L, ALM-74 1.0 μg/ml",0.061
same,Combination Index,"Cisplatin 1 × 10^−4 mol/L, ALM-74 5.0 μg/ml",1.031
same,Combination Index,"Cisplatin 1 × 10^−5 mol/L, ALM-74 0.1 μg/ml",No
same,Combination Index,"Cisplatin 1 × 10^−5 mol/L, ALM-74 0.5 μg/ml",No
same,Combination Index,"Cisplatin 1 × 10^−5 mol/L, ALM-74 1.0 μg/ml",0.069
same,Combination Index,"Cisplatin 1 × 10^−5 mol/L, ALM-74 5.0 μg/ml",0.778
same,Combination Index,"Cisplatin 1 × 10^−6 mol/L, ALM-74 0.1 μg/ml",No
same,Combination Index,"Cisplatin 1 × 10^−6 mol/L, ALM-74 0.5 μg/ml",No
same,Combination Index,"Cisplatin 1 × 10^−6 mol/L, ALM-74 1.0 μg/ml",0.083
same,Combination Index,"Cisplatin 1 × 10^−6 mol/L, ALM-74 5.0 μg/ml",No
same,Combination Index,"Cisplatin 1 × 10^−7 mol/L, ALM-74 0.1 μg/ml",No
same,Combination Index,"Cisplatin 1 × 10^−7 mol/L, ALM-74 0.5 μg/ml",No
same,Combination Index,"Cisplatin 1 × 10^−7 mol/L, ALM-74 1.0 μg/ml",0.092
same,Combination Index,"Cisplatin 1 × 10^−7 mol/L, ALM-74 5.0 μg/ml",No
same,Combination Index,"Cisplatin 1 × 10^−8 mol/L, ALM-74 0.1 μg/ml",No
same,Combination Index,"Cisplatin 1 × 10^−8 mol/L, ALM-74 0.5 μg/ml",No
same,Combination Index,"Cisplatin 1 × 10^−8 mol/L, ALM-74 1.0 μg/ml",0.091
same,Combination Index,"Cisplatin 1 × 10^−8 mol/L, ALM-74 5.0 μg/ml",No
same,Combination Index,"Cisplatin 1 × 10^−9 mol/L, ALM-74 0.1 μg/ml",0.895
same,Combination Index,"Cisplatin 1 × 10^−9 mol/L, ALM-74 0.5 μg/ml",No
same,Combination Index,"Cisplatin 1 × 10^−9 mol/L, ALM-74 1.0 μg/ml",0.090
same,Combination Index,"Cisplatin 1 × 10^−9 mol/L, ALM-74 5.0 μg/ml",No
same,Combination Index,"Doxorubicin 1 × 10^−4 mol/L, ALM-74 0.1 μg/ml",No
same,Combination Index,"Doxorubicin 1 × 10^−4 mol/L, ALM-74 0.5 μg/ml",0.277
same,Combination Index,"Doxorubicin 1 × 10^−4 mol/L, ALM-74 1.0 μg/ml",No
same,Combination Index,"Doxorubicin 1 × 10^−4 mol/L, ALM-74 5.0 μg/ml",No
same,Combination Index,"Doxorubicin 1 × 10^−5 mol/L, ALM-74 0.1 μg/ml",0.001
same,Combination Index,"Doxorubicin 1 × 10^−5 mol/L, ALM-74 0.5 μg/ml",0.007
same,Combination Index,"Doxorubicin 1 × 10^−5 mol/L, ALM-74 1.0 μg/ml",0.376
same,Combination Index,"Doxorubicin 1 × 10^−5 mol/L, ALM-74 5.0 μg/ml",1.069
same,Combination Index,"Etoposide 1 × 10^−4 mol/L, ALM-74 0.1 μg/ml",0.355
same,Combination Index,"Etoposide 1 × 10^−4 mol/L, ALM-74 0.5 μg/ml",0.402
same,Combination Index,"Etoposide 1 × 10^−4 mol/L, ALM-74 1.0 μg/ml",0.307
same,Combination Index,"Etoposide 1 × 10^−4 mol/L, ALM-74 5.0 μg/ml",0.349
same,Combination Index,"Etoposide 1 × 10^−5 mol/L, ALM-74 0.1 μg/ml",No
same,Combination Index,"Etoposide 1 × 10^−5 mol/L, ALM-74 0.5 μg/ml",0.613
same,Combination Index,"Etoposide 1 × 10^−5 mol/L, ALM-74 1.0 μg/ml",0.031
same,Combination Index,"Etoposide 1 × 10^−5 mol/L, ALM-74 5.0 μg/ml",0.053
same,Combination Index,"Etoposide 1 × 10^−6 mol/L, ALM-74 0.1 μg/ml",No
same,Combination Index,"Etoposide 1 × 10^−6 mol/L, ALM-74 0.5 μg/ml",No
same,Combination Index,"Etoposide 1 × 10^−6 mol/L, ALM-74 1.0 μg/ml",0.015
same,Combination Index,"Etoposide 1 × 10^−6 mol/L, ALM-74 5.0 μg/ml",0.200
same,Combination Index,"Etoposide 1 × 10^−7 mol/L, ALM-74 0.1 μg/ml",No
same,Combination Index,"Etoposide 1 × 10^−7 mol/L, ALM-74 0.5 μg/ml",No
same,Combination Index,"Etoposide 1 × 10^−7 mol/L, ALM-74 1.0 μg/ml",0.016
same,Combination Index,"Etoposide 1 × 10^−7 mol/L, ALM-74 5.0 μg/ml",0.231
same,Combination Index,"Etoposide 1 × 10^−8 mol/L, ALM-74 0.1 μg/ml",No
same,Combination Index,"Etoposide 1 × 10^−8 mol/L, ALM-74 0.5 μg/ml",No
same,Combination Index,"Etoposide 1 × 10^−8 mol/L, ALM-74 1.0 μg/ml",0.016
same,Combination Index,"Etoposide 1 × 10^−8 mol/L, ALM-74 5.0 μg/ml",0.261
same,Combination Index,"Etoposide 1 × 10^−9 mol/L, ALM-74 0.1 μg/ml",No
same,Combination Index,"Etoposide 1 × 10^−9 mol/L, ALM-74 0.5 μg/ml",No
same,Combination Index,"Etoposide 1 × 10^−9 mol/L, ALM-74 1.0 μg/ml",0.019
same,Combination Index,"Etoposide 1 × 10^−9 mol/L, ALM-74 5.0 μg/ml",0.251
same,Combination Index,"Etoposide 1 × 10^−10 mol/L, ALM-74 0.1 μg/ml",0.724
same,Combination Index,"Etoposide 1 × 10^−10 mol/L, ALM-74 0.5 μg/ml",No
same,Combination Index,"Etoposide 1 × 10^−10 mol/L, ALM-74 1.0 μg/ml",0.022
same,Combination Index,"Etoposide 1 × 10^−10 mol/L, ALM-74 5.0 μg/ml",0.265
same,Combination Index,"Irinotecan 1 × 10^−3 mol/L, ALM-74 0.1 μg/ml",0.916
same,Combination Index,"Irinotecan 1 × 10^−3 mol/L, ALM-74 0.5 μg/ml",0.121
same,Combination Index,"Irinotecan 1 × 10^−3 mol/L, ALM-74 1.0 μg/ml",No
same,Combination Index,"Irinotecan 1 × 10^−3 mol/L, ALM-74 5.0 μg/ml",No
same,Combination Index,"Irinotecan 1 × 10^−4 mol/L, ALM-74 0.1 μg/ml",0.189
same,Combination Index,"Irinotecan 1 × 10^−4 mol/L, ALM-74 0.5 μg/ml",0.302
same,Combination Index,"Irinotecan 1 × 10^−4 mol/L, ALM-74 1.0 μg/ml",0.051
same,Combination Index,"Irinotecan 1 × 10^−4 mol/L, ALM-74 5.0 μg/ml",0.051
same,Combination Index,"Irinotecan 1 × 10^−5 mol/L, ALM-74 0.1 μg/ml",No
same,Combination Index,"Irinotecan 1 × 10^−5 mol/L, ALM-74 0.5 μg/ml",No
same,Combination Index,"Irinotecan 1 × 10^−5 mol/L, ALM-74 1.0 μg/ml",0.025
same,Combination Index,"Irinotecan 1 × 10^−5 mol/L, ALM-74 5.0 μg/ml",0.616
same,Combination Index,"Irinotecan 1 × 10^−6 mol/L, ALM-74 0.1 μg/ml",0.518
same,Combination Index,"Irinotecan 1 × 10^−6 mol/L, ALM-74 0.5 μg/ml",No
same,Combination Index,"Irinotecan 1 × 10^−6 mol/L, ALM-74 1.0 μg/ml",0.055
same,Combination Index,"Irinotecan 1 × 10^−6 mol/L, ALM-74 5.0 μg/ml",0.589
same,Combination Index,"Irinotecan 1 × 10^−7 mol/L, ALM-74 0.1 μg/ml",0.067
same,Combination Index,"Irinotecan 1 × 10^−7 mol/L, ALM-74 0.5 μg/ml",No
same,Combination Index,"Irinotecan 1 × 10^−7 mol/L, ALM-74 1.0 μg/ml",0.054
same,Combination Index,"Irinotecan 1 × 10^−7 mol/L, ALM-74 5.0 μg/ml",0.726
same,Combination Index,"Irinotecan 1 × 10^−8 mol/L, ALM-74 0.1 μg/ml",0.046
same,Combination Index,"Irinotecan 1 × 10^−8 mol/L, ALM-74 0.5 μg/ml",No
same,Combination Index,"Irinotecan 1 × 10^−8 mol/L, ALM-74 1.0 μg/ml",0.066
same,Combination Index,"Irinotecan 1 × 10^−8 mol/L, ALM-74 5.0 μg/ml",0.895
same,Combination Index,"Irinotecan 1 × 10^−9 mol/L, ALM-74 0.1 μg/ml",0.049
same,Combination Index,"Irinotecan 1 × 10^−9 mol/L, ALM-74 0.5 μg/ml",No
same,Combination Index,"Irinotecan 1 × 10^−9 mol/L, ALM-74 1.0 μg/ml",0.078
same,Combination Index,"Irinotecan 1 × 10^−9 mol/L, ALM-74 5.0 μg/ml",0.973
same,Combination Index,"Irinotecan 1 × 10^−10 mol/L, ALM-74 0.1 μg/ml",0.22
same,Combination Index,"Irinotecan 1 × 10^−10 mol/L, ALM-74 0.5 μg/ml",No
same,Combination Index,"Irinotecan 1 × 10^−10 mol/L, ALM-74 1.0 μg/ml",0.086
same,Combination Index,"Irinotecan 1 × 10^−10 mol/L, ALM-74 5.0 μg/ml",0.720
